Source: patent publication US9096841B2, “Preparation of beta-amino acids” (BASF SE, priority 2009, dated 2015)
Blank lines part the entries; values can stand above or below the compound they belong to.

How the values were obtained:
[1] = system: D-hydantoinase (Sigma); test: Substrate specificity of Vigna angularis hydantoinase; type: biochemical; conditions: Tris buffer pH 7.5, 0.1 M; D-hydantoinase 7 g/L; substrate 5 mM
Protocol: Various substrates were synthesized as described in Example 4 and subjected to hydantoinase catalyzed conversion [Tris buffer (pH 7.5, 0.1 M, 1.0 mL), D-hydantoinase, (Sigma, 7 g/L), substrate (5 mM solutions predissolved in buffer unless aromatic substituent (4a, 4b, 4c), in which case substrate is dissolved in 100 microlitres DMSO and added to 900 microlitres of buffer)]. The reaction is shown in FIG. 10, the results are shown in Table 4, wherein the E-value is defined as follows: E value=(ln(1−[product](1+ee)))/(ln(1−[product]*(1−ee)))

[2] = pH dependency of chemical hydrolysis of 6-PDHU in Tris buffer without enzyme; type: physicochemical; conditions: 24 hours, no enzyme
Protocol: 6-PDHU was incubated at 50° C. for 24 hours in Tris buffer at different pH values. Appreciable background hydrolysis of 6-PDHU occurred with a strong pH and buffer dependency. In Tris buffer at pH 7, a background hydrolysis of 0.5% was observed. At pH 9, the background hydrolysis amounted to ca. 20% (FIG. 7).

[3] = system: hydantoinase isolated in Example 2; test: Specific activity of the hydantoinase isolated in Example 2 towards substrates, HPLC; type: biochemical, Vigna angularis; conditions: Enzyme from Example 2; 5 mM substrate, 50 mM Tris HCl pH 7.5, 30 min, 40° C.
Protocol: (§1) To determine and compare the specific activity of the Sigma enzyme and the purified hydantoinase (BP) 5 mM of hydantoin, 5-phenylhydantoin or 6-phenyldihydrouracil, respectively, in 50 mM Tris HCl pH 7.5 were incubated with different amounts of enzyme for 30 min at 40° C. The reaction was stopped by adding conc. HCl and then measured by HPLC.

[4] = system: hydantoinase obtained from Sigma; test: Specific activity of commercially available hydantoinase (Sigma) towards substrates, HPLC; type: biochemical, Vigna angularis; conditions: Enzyme from Sigma; 5 mM substrate, 50 mM Tris HCl pH 7.5, 30 min, 40° C.
Protocol: as §1

[5] = system: D-hydantoinase from Sigma; test: pH/buffer dependency of hydantoinase conversion of 6-PDHU; type: biochemical, Vigna angularis; conditions: 22 hours
Protocol: 6-PDHU was incubated in phosphate buffer (0.1 M, potassium dihydrogen phosphate and dipotassium hydrogen phosphate, volumes adjusted to the appropriate pH) or Tris buffer at various pH values for (up to 8h, using 7 g/L D-hydantoinase from Sigma). […] In an additional experiment conversion rates were determined for phosphate or Tris buffers at various pH values over time. 5 mM 6-PHDU was incubated in phosphate buffer (pH 6.0, 7.0, 7.5, 8.0) and Tris buffer (pH 7.5) buffers for 22 hours. The results are shown in FIG. 9 (wherein diamonds, squares, triangles and crosses represent phosphate buffer at pH 6, pH 7, pH 7.5 or pH 8, respectively, and dots represents Tris buffer at pH 7.5) and Table 3 (ee=enantiomeric excess [%]).

[6] = system: hydantoinase (obtained from Sigma); test: Hydantoinase catalysed hydrolysis of racemic 6-PDHU and reverse cyclisation, chiral reverse-phase HPLC; type: biochemical, Vigna angularis; conditions: for cyclisation of N-carbamoyl-β-phenylalanine (reverse reaction): with hydantoinase
Protocol: Unless otherwise stated all experiments were carried out on a 5 mM scale of 6-PDHU (4.75 mg) in 5 mL tris buffer (0.1 M pH 7.5) with 1U of commercially available hydantoinase from Vigna angularis (35 mg, obtained from Sigma, St. Louis, USA) in 15 mL Falcon tubes, incubated in a thermomixer (Falcon) at 750 rpm and a temperature of 50° C.
For chiral rpHPLC the following column, buffer and running conditions were used: • Astec Chirobiotic™ T 25 cm×4.6 mm, 5 μm (Sigma-Aldrich, St. Louis, USA) Ammonium Acetate buffer (pH 5.5):Methanol, 70:30, 25° C., 0.5 mL/min
Initially the hydantoinase (obtained form Sigma, St. Louis, USA) catalysed hydrolysis of (±)-6-PDHU (racemic 6-phenyldihydrouracil) (4a in FIG. 2: R=Ph) was studied as a model system. Reactions were carried out at a substrate concentration of 5 mM in Tris buffer [pH 7.5] and monitored by reverse-phase chiral HPLC as described in Example 7, which allowed simultaneous determination of both the extent of conversion in the reaction and also the enantiomeric excess of unreacted dihydrouracil 4a and the N-carbamoyl derivative 5 (FIG. 4, cf. also Scheme 2). […] All reactions gave an equilibrium concentration of 6-PDHU:(S)-NCBPA=51:49. The enantiomeric excess of (S)-NCBPA exceeded 96% during the whole observation period.

[7] = system: Pseudomonas putida IFO 12996; conditions: hydrolysis using Pseudomonas putida IFO 12996, JP06261787; cited from earlier work

SMILES: O=C1CC(c2ccc(Cl)cc2)NC(=O)N1 (stereo not shown) [Substrate 4c, 6-(4-chloro-phenyl)-dihydrouracil]
E value [1]: >100
Relative rate of enzymatic hydrolysis [1]: 41

SMILES: NC(=O)N[C@@H](CC(=O)O)c1ccccc1 [(S)-NCBPA, (S)-N-carbamoyl-β-pheynylalanine]
enantiomeric excess of (S)-NCBPA ([6]; during the whole observation period): exceeded 96%

SMILES: NC(=O)N[C@H](CC(=O)O)c1ccccc1 [(R)-NCBPA, (R)—N-carbamoyl-β-phenylalanine]
cyclisation of N-carbamoyl-β-phenylalanine (reverse reaction) [6]: no appreciable cyclisation

SMILES: NC(=O)NC(CC(=O)O)c1ccccc1 (racemic) [N-carbamoyl-β-phenylalanine, (±)—N-carbamoyl-β-phenylalanine]
cyclisation of N-carbamoyl-β-phenylalanine (reverse reaction) [6]: highly (S)-selective

SMILES: O=C1NC(=O)C(c2ccccc2)N1 (stereo not shown) [5-Phenylhydantoin, 5-phenylhydantoin]
specific activity [3]: 557
specific activity [4]: 261

Further lines, with some results ahead:

background hydrolysis ([2]; Tris buffer pH 7, 50° C.): 0.5%
background hydrolysis ([2]; Tris buffer pH 9, 50° C.): ca. 20%
specific activity [3]: 72
specific activity [4]: 6
E value [1]: >200
Relative rate of enzymatic hydrolysis [1]: 7
ee (enantiomeric excess) ([5]; Phosphate buffer pH 6.00, 5 mM): >99.90%
ee (enantiomeric excess) ([5]; Phosphate buffer pH 7.00, 5 mM): >99.90%
ee (enantiomeric excess) ([5]; Phosphate buffer pH 7.50, 5 mM): 96.62%
ee (enantiomeric excess) ([5]; Phosphate buffer pH 8.00, 5 mM): 92.73%
ee (enantiomeric excess) ([5]; Tris buffer pH 7.50, 5 mM): >99.90%
E value ([6]; selective for the (S)-enantiomer, 5 mM substrate, Tris buffer pH 7.5): > 100
SMILES: O=C1CC(c2ccccc2)NC(=O)N1 (racemic) [Substrate 4a, (±)-6-phenyldihydrouracil]
enantiomeric excess [7]: up to 51%

E value [1]: >100
Relative rate of enzymatic hydrolysis [1]: 15
SMILES: O=C1CC(c2ccc(F)cc2)NC(=O)N1 (stereo not shown) [Substrate 4b, 6-(4-fluoro-phenyl)-dihydrouracil]

E value [1]: 5
Relative rate of enzymatic hydrolysis [1]: 52
SMILES: CC1CC(=O)NC(=O)N1 (stereo not shown) [Substrate 4h, 6-methyldihydrouracil]

Relative rate of enzymatic hydrolysis [1]: 100
SMILES: O=C1CCNC(=O)N1 [Substrate 4e, dihydrouracil]

specific activity [3]: 425
specific activity [4]: 217
SMILES: O=C1CNC(=O)N1 [Hydantoin, hydantoin]

Relative rate of enzymatic hydrolysis [1]: 23
SMILES: CC1CNC(=O)NC1=O (stereo not shown) [Substrate 8, 5-methyldihydrouracil]
